Assay results published in the supplement of paper PMC10331698.
± gives the standard deviation of the averaged measurements.

Experiments:
Experiment in all cases: level (log10 ratio to DMSO vehicle control); higher = higher biomarker level / cell amount than vehicle control
[1] = compound: OCC(F)(F)C(F)(F)C(F)(F)C(F)(F)C(F)(F)C(F)(F)CO [1H,1H,8H,8H-Perfluorooctane-1,8-diol] (in DMSO)
Procedure: (§1)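 BioMAP Diversity Plus panel of 12 human primary cell co-culture systems (3C, 4H, LPS, SAg, BT, BF4T, BE3C, CASM3C, HDF3CGF, KF3CT, MyoF, Mphg). Compounds were added 1 h before stimulation and left for 24 h (MyoF 48 h; BT 72 h for soluble read-outs or 6 d for IgG). Biomarkers were read by ELISA, cytotoxicity by SRB, PBMC viability and proliferation by Alamar Blue. Each well value was divided by the mean of 8 DMSO control wells on the same plate and log10 transformed; duplicate blinded samples were tested at 4 concentrations.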

[2] = compound: O=C(O)C(F)(F)OC(F)(F)C(F)(F)OC(F)(F)C(F)(F)OC(F)(F)C(F)(F)C(F)(F)C(F)(F)F [Perfluoro-3,6,9-trioxatridecanoic acid] (in DMSO); details: 6700 nM
Procedure: as §1

[3] = compound: OCC(F)(F)C(F)(F)C(F)(F)C(F)F [1H,1H,5H-Perfluoropentanol] (in DMSO)
Procedure: as §1

[4] = compound: O=C(O)C(F)(F)C(F)(F)C(F)(F)C(F)(F)C(=O)O [Octafluoroadipic acid] (in DMSO)
Procedure: as §1

[5] = compound: CCOC(=O)CC(=O)C(F)(F)C(F)(F)F [Ethyl pentafluoropropionyl acetate] (in DMSO)
Procedure: as §1

[6] = compound: C[C@@H]1C[C@H]2[C@@H]3CCC4=CC(=O)C=C[C@]4(C)[C@@]3(F)[C@@H](O)C[C@]2(C)[C@@]1(O)C(=O)COP(=O)(O)O [Dexamethasone sodium phosphate] (in DMSO)
Procedure: as §1

[7] = compound: O=S(=O)(O)CCC(F)(F)C(F)(F)C(F)(F)C(F)(F)C(F)(F)C(F)(F)C(F)(F)C(F)(F)F [8:2 Fluorotelomer sulfonic acid] (in DMSO)
Procedure: as §1

Test System	level (log10) ([1]; 6700 nM)	level (log10) ([1]; 20000 nM)	level (log10) ([1]; 60000 nM)	level (log10) [2]	level (log10) ([3]; 6700 nM)	level (log10) ([3]; 20000 nM)	level (log10) ([3]; 60000 nM)	level (log10) ([4]; 6700 nM)	level (log10) ([4]; 20000 nM)	level (log10) ([4]; 60000 nM)	level (log10) ([5]; 6700 nM)	level (log10) ([5]; 20000 nM)	level (log10) ([5]; 60000 nM)	level (log10) ([6]; 1500 nM)	level (log10) ([6]; 4400 nM)	level (log10) ([6]; 13000 nM)	level (log10) ([6]; 40000 nM)	level (log10) ([7]; 6700 nM)	level (log10) ([7]; 20000 nM)	level (log10) ([7]; 60000 nM)
MyoF:alpha-SM Actin	0.0075 ± 0.005	0.0035 ± 0.011	-0.005 ± 0.0028	-0.24 ± 0.025	-0.04 ± 0.059	-0.0045 ± 0.018	0 ± 0.017	0.007 ± 0.044	-0.0105 ± 0.052	0.007 ± 0.033	-0.0145 ± 0.03	-0.0235 ± 0.0078	-0.019 ± 0.013	0.073 ± 0.051	0.084 ± 0.055	0.0695 ± 0.057	0.0745 ± 0.063	0.034 ± 0.02	0.001 ± 0.014	-0.0125 ± 0.025
MyoF:bFGF	0.009 ± 0.014	0.0145 ± 0.0021	0.014 ± 0.014	-0.059 ± 0.03	-0.02 ± 0.016	0.0115 ± 0.026	0.0135 ± 0.012	-0.0035 ± 0.00071	0.002 ± 0.0057	0.0055 ± 0.0092	-0.0045 ± 0.0064	0.0015 ± 0.0021	0.0135 ± 0.012	-0.035 ± 0.042	-0.0165 ± 0.035	-0.042 ± 0.031	-0.028 ± 0.0042	0.0045 ± 0.012	0.006 ± 0.023	0.0265 ± 0.0021
lMphg:CCL2/MCP-1	-0.017 ± 0.0071	-0.005 ± 0.0042	0.008 ± 0.031	0.001 ± 0.014	-0.0185 ± 0.00071	0.008 ± 0.02	0.0075 ± 0.012	0.0135 ± 0.013	-0.008 ± 0.016	0.028 ± 0.059	-0.023 ± 0.045	-0.0135 ± 0.021	0.0125 ± 0.037	-0.0595 ± 0.0078	-0.103 ± 0.0064	-0.117 ± 0.021	-0.126 ± 0.0064	0.0075 ± 0.019	-0.019 ± 0.016	0.0155 ± 0.00071
lMphg:CCL3/MIP-1alpha	-0.023 ± 0.0014	-0.016 ± 0.0085	0.018 ± 0.025	-0.0245 ± 0.019	-0.012 ± 0.024	-0.011 ± 0.027	0.0095 ± 0.0078	-0.035 ± 0.024	-0.0045 ± 0.023	0.002 ± 0.018	-0.0265 ± 0.026	-0.0305 ± 0.0078	0.0075 ± 0.022	-0.139 ± 0.016	-0.173 ± 0.043	-0.254 ± 0.06	-0.209 ± 0.055	0.0035 ± 0.03	0.0095 ± 0.026	0.0065 ± 0.032
lMphg:CD40	-0.0015 ± 0.018	-0.028 ± 0.013	-0.0405 ± 0.0078	-0.0205 ± 0.013	0.0015 ± 0.023	-0.012 ± 0.016	0.007 ± 0.02	-0.0065 ± 0.0021	-0.0015 ± 0.0021	-0.025 ± 0.048	-0.0205 ± 0.0092	-0.0135 ± 0.0092	0.003 ± 0.061	-0.0185 ± 0.026	-0.0375 ± 0.0092	-0.038 ± 0.013	-0.103 ± 0.04	-0.026 ± 0.023	-0.052 ± 0.0028	-0.0995 ± 0.019
lMphg:CD62E/E-Selectin	-0.0195 ± 0.028	-0.004 ± 0.013	-0.0075 ± 0.0064	-0.025 ± 0.061	-0.006 ± 0.017	0.002 ± 0.014	0.02 ± 0.016	-0.0025 ± 0.036	-0.0275 ± 0.057	-0.028 ± 0.064	-0.036 ± 0.02	-0.0245 ± 0.012	0.0115 ± 0.025	-0.147 ± 0.0028	-0.212 ± 0.0042	-0.239 ± 0.089	-0.292 ± 0.061	0.0165 ± 0.0092	0.048 ± 0.0042	0.103 ± 0.0057
lMphg:CD69	-0.0165 ± 0.036	-0.024 ± 0.025	0.001 ± 0.038	-0.056 ± 0.083	-0.039 ± 0.031	0.0325 ± 0.019	0.034 ± 0.028	0.0095 ± 0.037	0.0035 ± 0.081	-0.008 ± 0.054	-0.0405 ± 0.0064	0.0005 ± 0.064	0.0075 ± 0.12	0.039 ± 0.014	-0.007 ± 0.017	-0.0155 ± 0.029	-0.0585 ± 0.022	-0.0695 ± 0.023	-0.059 ± 0.0028	-0.173 ± 0.025
lMphg:CD106/VCAM-1	-0.024 ± 0.041	-0.0125 ± 0.033	-0.003 ± 0.048	-0.017 ± 0.011	-0.0035 ± 0.021	0.0165 ± 0.037	0.0145 ± 0.018	-0.007 ± 0.02	0.0065 ± 0.011	0.0055 ± 0.005	-0.023 ± 0.0028	0.013 ± 0.0028	0.0195 ± 0.005	-0.018 ± 0.0071	-0.039 ± 0.0028	-0.0615 ± 0.013	-0.086 ± 0.0042	-0.0355 ± 0.005	-0.042 ± 0.0071	-0.08 ± 0.0057
lMphg:CXCL8/IL-8	-0.0085 ± 0.074	-0.03 ± 0.028	0.011 ± 0.034	0.126 ± 0.016	0.018 ± 0.017	-0.0005 ± 0.019	0.035 ± 0.0028	0.009 ± 0.0099	-0.0015 ± 0.028	0.0495 ± 0.091	-0.0295 ± 0.023	-0.01 ± 0.0042	0.0095 ± 0.049	-0.108 ± 0.0064	-0.138 ± 0.015	-0.136 ± 0.011	-0.129 ± 0.034	0.001 ± 0.0085	0.022 ± 0.013	0.0775 ± 0.0035
lMphg:IL-1alpha	-0.011 ± 0.041	-0.012 ± 0.0085	0.0855 ± 0.047	0.013 ± 0.025	-0.055 ± 0.017	-0.0185 ± 0.005	0.011 ± 0.044	-0.0495 ± 0.013	-0.041 ± 0.027	0.039 ± 0.031	-0.0145 ± 0.011	-0.016 ± 0.024	0.0045 ± 0.0092	-0.0345 ± 0.005	-0.0335 ± 0.0092	-0.102 ± 0.05	-0.096 ± 0.0099	-0.019 ± 0.014	-0.011 ± 0.028	-0.035 ± 0.05
lMphg:M-CSF	-0.015 ± 0.013	-0.013 ± 0.016	0.013 ± 0.067	0.023 ± 0.0071	0.0115 ± 0.016	-0.0125 ± 0.0064	0.0175 ± 0.021	-0.012 ± 0.0071	-0.0255 ± 0.0035	-0.006 ± 0.017	-0.01 ± 0.0099	-0.001 ± 0.028	0.005 ± 0.0014	-0.022 ± 0.034	-0.031 ± 0.058	-0.0455 ± 0.028	-0.0495 ± 0.0021	-0.0075 ± 0.033	-0.014 ± 0.013	0.012
lMphg:SRB	-0.0125 ± 0.0078	-0.0115 ± 0.018	-0.0245 ± 0.00071	-0.014 ± 0.0085	-0.0065 ± 0.005	-0.0045 ± 0.0064	0.006 ± 0.0014	-0.023 ± 0.017	-0.0045 ± 0.00071	0.001 ± 0.023	0.005 ± 0.0071	-0.0005 ± 0.0078	0.0055 ± 0.0035	-0.0045 ± 0.0092	-0.0125 ± 0.0078	-0.006 ± 0.0014	-0.0265 ± 0.0021	-0.006 ± 0.02	-0.013 ± 0.017	-0.029 ± 0.0057
lMphg:SRB-Mphg	-0.053 ± 0.079	-0.031 ± 0.014	-0.018 ± 0.027	0.0035 ± 0.0035	-0.012 ± 0.023	-0.0605 ± 0.057	0.0145 ± 0.033	-0.026 ± 0.016	0.0135 ± 0.022	0.0265 ± 0.029	-0.0015 ± 0.018	-0.0055 ± 0.005	-0.012 ± 0.02	-0.0225 ± 0.022	-0.0625 ± 0.005	-0.0715 ± 0.018	-0.0805 ± 0.057	0.003 ± 0.0028	-0.012 ± 0.014	-0.027 ± 0.013
lMphg:sIL-10	-0.175 ± 0.042	-0.17 ± 0.037	-0.216 ± 0.0057	-0.0585 ± 0.00071	-0.0455 ± 0.069	-0.012 ± 0.025	-0.014 ± 0.027	-0.067 ± 0.014	-0.0425 ± 0.077	-0.0425 ± 0.046	-0.0405 ± 0.012	-0.0435 ± 0.035	-0.0305 ± 0.022	-0.286 ± 0.05	-0.503 ± 0.054	-0.62 ± 0.056	-0.646 ± 0.054	-0.078 ± 0.024	-0.216 ± 0.0057	-0.6535 ± 0.0064
